Tests used:
[1] = molecular target: T1, full length human TREX1 (Homo sapiens, UniProt Q9NSU2); assay: TREX1 Biochemical Assay (fluorescence, dsDNA substrate degradation); conditions: 150 pM TREX1, 60 nM dsDNA substrate, 25 minutes at room temperature
T1 construct: N-terminally His-Tev tagged full length human TREX1; His-TEV (His tag with TEV site) (N); made in house; host or cells: E. coli
T1 sequence (Q9NSU2 1-314): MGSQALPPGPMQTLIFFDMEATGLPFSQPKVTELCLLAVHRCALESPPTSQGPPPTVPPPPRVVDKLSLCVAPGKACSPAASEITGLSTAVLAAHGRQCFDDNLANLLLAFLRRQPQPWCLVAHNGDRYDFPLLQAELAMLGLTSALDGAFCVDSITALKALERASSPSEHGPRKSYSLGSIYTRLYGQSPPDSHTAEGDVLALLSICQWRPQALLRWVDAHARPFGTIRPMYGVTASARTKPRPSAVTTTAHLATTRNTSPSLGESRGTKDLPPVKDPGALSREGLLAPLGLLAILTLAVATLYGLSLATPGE
Protocol: Degradation of the dsDNA liberates free fluorophore to produce a fluorescent signal. Specifically, 7.5 μL of N-terminally His-Tev tagged full length human TREX1 (expressed in E. coli and purified in house) in reaction buffer (50 mM Tris (pH 7.4), 150 mM NaCl, 2 mM DTT, 0.1 mg/mL BSA, 0.01% (v/v) Tween-20 and 100 mM MgCl2) was added to a 384-well Black ProxiPlate Plus (Perkin Elmer) which already contained compound (150 nL) at varying concentrations as a 10 point dose-response in DMSO. To this was added 7.5 μL of dsDNA substrate (Strand A: 5′ TEX615/GCT AGG CAG 3′; Strand B: 5′ CTG CCT AGC/IAbRQSp (Integrated DNA Technologies)) in reaction buffer. Final concentrations were 150 pM TREX1, 60 nM dsDNA substrate in reaction buffer with 1.0% DMSO (v/v). After 25 minutes at room temperature, reactions were quenched by the addition of 5 μL of stop buffer (same as reaction buffer plus 200 mM EDTA). Final concentrations in the quenched reaction were 112.5 pM TREX1, 45 nM DNA and 50 mM EDTA in a volume of 20 μL. After a 5-minute incubation at room temperature, plates were read in a laser sourced Envision (Perkin-Elmer), measuring fluorescence at 615 nm following excitation w/570 nm light. IC50 values were calculated by comparing the measured fluorescence at 615 nm ratio relative to control wells pre-quenched w/stop buffer (100% inhibition) and no inhibitor (0% inhibition) controls as using non-linear least square four parameter fits and either Genedata or GraphPad Prism (GraphPad Software, Inc.).

[2] = molecular target: T2, human TREX2 (residues M44-A279) (Homo sapiens, UniProt Q9BQ50); assay: TREX2 Biochemical Assay (fluorescence, dsDNA substrate degradation); conditions: 2.5 nM TREX2, 60 nM dsDNA substrate, 25 minutes at room temperature
T2 construct: human TREX2 (residues M44-A279, expressed in E. coli); His-TEV (His tag with TEV site) (N); made in house; host or cells: E. coli
T2 sequence (Q9BQ50 44-279 isoform Q9BQ50-1): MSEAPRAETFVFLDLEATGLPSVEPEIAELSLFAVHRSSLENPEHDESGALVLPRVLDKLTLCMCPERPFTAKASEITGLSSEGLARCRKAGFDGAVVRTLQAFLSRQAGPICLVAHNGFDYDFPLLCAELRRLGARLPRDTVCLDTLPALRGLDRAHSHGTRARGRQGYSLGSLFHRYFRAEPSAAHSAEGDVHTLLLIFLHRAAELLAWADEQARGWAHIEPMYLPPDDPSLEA
Protocol: Degradation of the dsDNA liberates free fluorophore to produce a fluorescent signal. Specifically, 7.5 μL of N-terminally His-Tev tagged human TREX2 (residues M44-A279, expressed in E. coli and purified in house) in reaction buffer (50 mM Tris (pH 7.4), 150 mM NaCl, 2 mM DTT, 0.1 mg/mL BSA, 0.01% (v/v) Tween-20 and 100 mM MgCl2) was added to a 384-well Black ProxiPlate Plus (Perkin Elmer) which already contained compound (150 nL) at varying concentrations as a 10 point dose-response in DMSO. To this was added 7.5 μL of dsDNA substrate (Strand A: 5′ TEX615/GCT AGG CAG 3′; Strand B: 5′ CTG CCT AGC/IAbRQSp (IDT)) in reaction buffer. Final concentrations were 2.5 nM TREX2, 60 nM dsDNA substrate in reaction buffer with 1.0% DMSO (v/v). After 25 minutes at room temperature, reactions were quenched by the addition of 5 μL of stop buffer (same as reaction buffer plus 200 mM EDTA). Final concentrations in the quenched reaction mixture were […] TREX2, 45 nM DNA and 50 mM EDTA in a volume of 20 μL. After a 5-minute incubation at room temperature, plates were read in a laser sourced Envision (Perkin-Elmer), measuring fluorescence at 615 nm following excitation w/570 nm light. IC50 values were calculated by comparing the measured fluorescence at 615 nm ratio relative to control wells pre-quenched w/stop buffer (100% inhibition) and no inhibitor (0% inhibition) controls as using non-linear least square four parameter fits and either Genedata or GraphPad Prism (GraphPad Software, Inc.).

[3] = tested on: HCT116 dual cells; assay: HCT116 Cell Assay (Lucia luciferase reporter of Type I interferon induction); type: cell-based, human; conditions: pBR322/BstNI DNA transfection, Lucia luciferase at 48 h, relative to 10 uM compound 39
Description: HCT116 dual cells (Invivogen, San Diego, Calif., USA) are derived from the human HCT116 colorectal carcinoma cell line. Cells have been selected for the stable integration of SEAP and Luciferase reporter genes, which expression is under the control of 5 tandem response elements for NF-KB/AP1 and STAT1/STAT2, respectively. The cell line was used to monitor Type I interferon induction and subsequent signaling by measuring the activity of the Lucia luciferase secreted in the culture medium.
HCT116 cells were plated in 96-well plate(s) at 40,000 cells/well in 100 uL DMEM supplemented with 10% FBS and 25 mM Hepes (pH 7.2-7.5). After overnight settling, cells were treated with TREX1i for 4 h (maximum DMSO fraction was 0.1%) before 1.25 ug/mL pBR322/BstNI restriction digest (New England Biolabs, Ipswich, Mass., USA) was transfected with Lipofectamine LTX (ThermoFisher, Grand Island, N.Y., USA), according to product manual recommendations. Briefly, Lipofectamine LTX (0.4 uL/well) was diluted in OptiMEM (5 uL/well). pBR322/BstNI (100 ng/well) was diluted in OptiMEM (5 uL/well) before Plus reagent (0.1 uL/100 ng DNA) was added. After 5 min incubation at room temperature, the DNA mixture was mixed dropwise with the diluted Lipofectamine LTX. After an additional 10 min incubation, the transfection mix (10 uL/well) was added to the cells. Cells were maintained at 37° C. for 48 h before monitoring the Lucia Luciferase activity from the cell culture medium. EC50 values were calculated by comparing the measured luminescence relative to 10 uM compound 39 (100% inhibition) and no inhibitor (0% inhibition) controls using non-linear least-squares four parameter fits in either Genedata Screener or GraphPad Prism (GraphPad Software, Inc.).

[4] = Homo sapiens, HCT-116, 4 h pre-treatment

CN(c1nc(C(=O)Nc2cnoc2)c(O)c(=O)n1C)C(c1ccccc1)c1ccccc1C#N (single isomer, unassigned) [Example 85]
IC50 [1]: < 100 nM
IC50 [2]: < 1000 nM
EC50 [3, 4]: < 1000 nM

CN(c1nc(C(=O)Nc2cnoc2)c(O)c(=O)n1C)C(c1ccccc1)c1ccccc1C#N (single isomer, unassigned) [Example 86]
IC50 [1]: < 100 nM
IC50 [2]: < 1000 nM
EC50 ([3]; 4 h pre-treatment): < 1000 nM

CN(c1nc(C(=O)Nc2cnoc2)c(O)c(=O)n1C)C(c1ccccc1)c1cc(F)ccc1Cl (single isomer, unassigned) [Example 87]
IC50 [1]: < 100 nM
IC50 [2]: < 1000 nM
EC50 [3, 4]: < 1000 nM

CN(c1nc(C(=O)Nc2cnoc2)c(O)c(=O)n1C)C(c1ccccc1)c1cc(F)ccc1Cl (single isomer, unassigned) [Example 88]
IC50 [1]: < 100 nM
IC50 [2]: < 1000 nM
EC50 ([3]; 4 h pre-treatment): < 1000 nM

Cc1cc(C(c2ccccc2Cl)N(C)c2nc(C(=O)Nc3cnoc3)c(O)c(=O)n2C)ccn1 (single isomer, unassigned) [Example 89]
IC50 [1]: < 100 nM
IC50 [2]: < 1000 nM
EC50 [3, 4]: < 1000 nM

Cc1cc(C(c2ccccc2Cl)N(C)c2nc(C(=O)Nc3cnoc3)c(O)c(=O)n2C)ccn1 (single isomer, unassigned) [Example 90]
IC50 [1]: < 100 nM
IC50 [2]: < 1000 nM
EC50 ([3]; 4 h pre-treatment): 1000 to 10000 nM

CCN(c1nc(C(=O)Nc2cnoc2)c(O)c(=O)n1C)C(c1ccccc1)c1ccccc1Cl (single isomer, unassigned) [Example 91]
IC50 [1]: < 100 nM
IC50 [2]: < 1000 nM
EC50 [3, 4]: 1000 to 10000 nM

CCN(c1nc(C(=O)Nc2cnoc2)c(O)c(=O)n1C)C(c1ccccc1)c1ccccc1Cl (single isomer, unassigned) [Example 92]
IC50 [1]: < 100 nM
IC50 [2]: < 1000 nM
EC50 ([3]; 4 h pre-treatment): 1000 to 10000 nM

CN(C)C(=O)c1ccc(C(c2ccccc2)N(C)c2nc(C(=O)Nc3cnoc3)c(O)c(=O)n2C)c(Cl)c1 (single isomer, unassigned) [Example 93]
IC50 [1]: < 100 nM
IC50 [2]: 1000 to 10000 nM
EC50 [3, 4]: 1000 to 10000 nM

CN(C)C(=O)c1ccc(C(c2ccccc2)N(C)c2nc(C(=O)Nc3cnoc3)c(O)c(=O)n2C)c(Cl)c1 (single isomer, unassigned) [Example 94]
IC50 [1]: < 100 nM
IC50 [2]: < 1000 nM
EC50 ([3]; 4 h pre-treatment): < 1000 nM

CN(c1nc(C(=O)Nc2cnoc2)c(O)c(=O)n1C)C(c1cccc(C#N)c1)c1ccccc1Cl (single isomer, unassigned) [Example 95]
IC50 [1]: < 100 nM
IC50 [2]: < 1000 nM
EC50 [3, 4]: < 1000 nM

CN(c1nc(C(=O)Nc2cnoc2)c(O)c(=O)n1C)C(c1cccc(C#N)c1)c1ccccc1Cl (single isomer, unassigned) [Example 96]
IC50 [1]: < 100 nM
IC50 [2]: < 1000 nM
EC50 ([3]; 4 h pre-treatment): 1000 to 10000 nM

CN(Cc1ccccc1)c1nc(C(=O)Nc2cnoc2)c(O)c(=O)n1C [Example 2]
IC50 [1]: < 100 nM
IC50 [2]: 1000 to 10000 nM
EC50 [3, 4]: 1000 to 10000 nM

CN(Cc1c(Cl)cccc1Cl)c1nc(C(=O)Nc2cnoc2)c(O)c(=O)n1C [Example 4]
IC50 [1]: < 100 nM
IC50 [2]: < 1000 nM
EC50 [3, 4]: 1000 to 10000 nM

CN(Cc1cc(Cl)ccc1Cl)c1nc(C(=O)Nc2cnoc2)c(O)c(=O)n1C [Example 5]
IC50 [1]: < 100 nM
IC50 [2]: 1000 to 10000 nM
EC50 [3, 4]: 1000 to 10000 nM

CN(Cc1ccc(Cl)cc1Cl)c1nc(C(=O)Nc2cnoc2)c(O)c(=O)n1C [Example 6]
IC50 [1]: < 100 nM
IC50 [2]: 1000 to 10000 nM
EC50 [3, 4]: 1000 to 10000 nM

CN(Cc1ccc(Cl)c(Cl)c1)c1nc(C(=O)Nc2cnoc2)c(O)c(=O)n1C [Example 7]
IC50 [1]: < 100 nM
IC50 [2]: 1000 to 10000 nM
EC50 [3, 4]: 1000 to 10000 nM

CN(Cc1cccc(Cl)c1)c1nc(C(=O)Nc2cnoc2)c(O)c(=O)n1C [Example 8]
IC50 [1]: < 100 nM
IC50 [2]: 1000 to 10000 nM
EC50 [3, 4]: 1000 to 10000 nM

CN(Cc1ccc(Cl)cc1)c1nc(C(=O)Nc2cnoc2)c(O)c(=O)n1C [Example 9]
IC50 [1]: < 100 nM
IC50 [2]: 10000 to 100000 nM
EC50 [3, 4]: 10000 to 100000 nM

CN(Cc1cccc(C(F)(F)F)c1)c1nc(C(=O)Nc2cnoc2)c(O)c(=O)n1C [Example 10]
IC50 [1]: < 100 nM
IC50 [2]: 1000 to 10000 nM
EC50 [3, 4]: 10000 to 100000 nM

CN(Cc1ccccc1C(F)(F)F)c1nc(C(=O)Nc2cnoc2)c(O)c(=O)n1C [Example 11]
IC50 [1]: < 100 nM
IC50 [2]: 1000 to 10000 nM
EC50 [3, 4]: 1000 to 10000 nM

Source: patent US20220289728A1, “MODULATORS OF TREX1” (Constellation Pharmaceuticals, Inc., priority 2019, published 2022)
